Measured values published in patent US20050282755A1, “Compositions having antimicrobial activity and uses thereof” (priority 2004, published 2005).
Converted amounts (≈) assume the structure as drawn. Starred links: 1 amine or outer side, 2 acyl side, 3 side chain; linkers in the order of their positions; H or OH if unused. Non-standard residues stand in square brackets, D forms with d. Residues, ends and D or L forms follow the SMILES beside them. *: point of attachment. 1Nal = N[C@@H](Cc1cccc2ccccc12)C(=O)O; d(hArg) = N=C(N)NCCCC[C@@H](N)C(=O)O; Ethylenediamine = C(CN[*:2])N[*:1]; Palmitoyl = CCCCCCCCCCCCCCCC(=O)*; Lauroyl = CCCCCCCCCCCC(=O)*; Octanoyl = CCCCCCCC(=O)*; Hexanoyl = CCCCCC(=O)*

Experiments:
Assay type in all cases: cell-based
[1] = system: Staphylococcus aureus ATCC 29213; assay: MIC, NCCLS M7-A6 broth microdilution, cation-adjusted Mueller Hinton broth (Table 9, no superscript); settings: ATCC 29213
Summary of the method: (§1)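 MIC determined by microdilution in cation-adjusted Mueller Hinton broth after overnight growth at 37° C, defined as the lowest peptide level lacking turbidity.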

[2] = system: Escherichia coli ATCC 25922; assay: MIC, NCCLS M7-A6 broth microdilution (Table 9, no superscript); settings: ATCC 25922
Summary of the method: as §1

[3] = system: Pseudomonas aeruginosa ATCC 27853; assay: as above; settings: ATCC 27853
Summary of the method: as §1

Salmonella dublin (Lane) = assay: as above
Summary of the method: as §1

[4] = system: Staphylococcus epidermidis ATCC 12228; assay: as above; settings: ATCC 12228
Summary of the method: as §1

SMILES	MIC S. aureus [1] [µg/mL]	MIC E. coli [2] [µg/mL]	MIC P. aeruginosa [3] [µg/mL]	MIC S. dublin (Salmonella dublin (Lane)) [µg/mL]	MIC S. epidermidis [4] [µg/mL]
CCCCCCCCCCCC(=O)N[C@@H](CCCNC(=N)N)C(=O)N[C@@H](CO)C(=O)N[C@@H](CCCNC(=N)N)C(=O)N[C@@H](Cc1c[nH]c2ccccc12)C(=O)N[C@@H](CCCNC(=N)N)C(=O)N[C@@H](CC(=O)O)C(=O)N[C@@H](Cc1cccc2ccccc12)C(=O)N[C@@H](C)C(=O)N[C@@H](CCCNC(=N)N)C(=O)N[C@@H](CC(N)=O)C(=O)N[C@@H](Cc1cccc2ccccc12)C(=O)N[C@@H](CCSC)C(=O)N[C@@H](CCCNC(=N)N)C(N)=O [Peptide 156, Lauryl-RSRWRDZARNZMR-NH2 Z = 1-naphthylalanine] (Lauroyl-RSRWRD[1Nal]ARN[1Nal]MR-NH2)	32 (≈ 15.4 µM)	64 (≈ 30.8 µM)	>64	8 (≈ 3.85 µM)	16 (≈ 7.69 µM)
CCCCCCCCCCCC(=O)N[C@H](CCCCNC(=N)N)C(=O)N[C@H](CO)C(=O)N[C@H](CCCCNC(=N)N)C(=O)N[C@H](Cc1c[nH]c2ccccc12)C(=O)N[C@H](CCCCNC(=N)N)C(=O)N[C@H](CC(=O)O)C(=O)N[C@@H](C(=O)N[C@H](C)C(=O)N[C@H](CCCCNC(=N)N)C(=O)N[C@H](CC(N)=O)C(=O)N[C@H](Cc1ccccc1)C(=O)N[C@H](CCSC)C(=O)N[C@H](CCCCNC(=N)N)C(N)=O)C(C)C [Peptide 159, Lauryl-xsxwxdvaxnfmx-NH2 x = D-homoarginine] (Lauroyl-[d(hArg)][dS][d(hArg)][dW][d(hArg)][dD][dV][dA][d(hArg)][dN][dF][dM][d(hArg)]-NH2)	8 (≈ 4 µM)	16 (≈ 7.99 µM)	32 (≈ 16 µM)	64 (≈ 32 µM)	8 (≈ 4 µM)
CCCCCCCCCCCC(=O)N[C@@H](CCCNC(=N)N)C(=O)N[C@@H](CO)C(=O)N[C@@H](CCCNC(=N)N)C(=O)N[C@@H](Cc1c[nH]c2ccccc12)C(=O)N[C@@H](CCCNC(=N)N)C(=O)N[C@@H](CC(=O)O)C(=O)N[C@H](C(=O)N[C@@H](C)C(=O)N[C@@H](CCCNC(=N)N)C(=O)N[C@@H](CC(N)=O)C(=O)N[C@@H](Cc1ccccc1)C(=O)N[C@@H](CC(C)C)C(N)=O)C(C)C [Peptide 161, Lauryl-RSRWRDVARNFL-NH2] (Lauroyl-RSRWRDVARNFL-NH2)	8 (≈ 4.55 µM)	16 (≈ 9.11 µM)	>64	>64	4 (≈ 2.28 µM)
CCCCCCCCCCCC(=O)N[C@@H](CO)C(=O)N[C@@H](CCCNC(=N)N)C(=O)N[C@@H](Cc1c[nH]c2ccccc12)C(=O)N[C@@H](CCCNC(=N)N)C(=O)N[C@@H](CC(=O)O)C(=O)N[C@H](C(=O)N[C@@H](C)C(=O)N[C@@H](CCCNC(=N)N)C(=O)N[C@@H](CC(N)=O)C(=O)N[C@@H](Cc1ccccc1)C(=O)N[C@@H](CC(C)C)C(=O)N[C@@H](CCCNC(=N)N)C(N)=O)C(C)C [Peptide 162, Lauryl-SRWRDVARNFLR-NH2] (Lauroyl-SRWRDVARNFLR-NH2)	4 (≈ 2.28 µM)	32 (≈ 18.2 µM)	>64	16 (≈ 9.11 µM)	8 (≈ 4.55 µM)
CCCCCCCCCCCCCCCC(=O)NCCNC(=O)[C@H](CCCNC(=N)N)NC(=O)[C@H](CC(C)C)NC(=O)[C@H](Cc1ccccc1)NC(=O)[C@H](CC(N)=O)NC(=O)[C@H](CCCNC(=N)N)NC(=O)[C@H](C)NC(=O)[C@@H](NC(=O)[C@H](CC(=O)O)NC(=O)[C@H](CCCNC(=N)N)NC(=O)[C@H](Cc1c[nH]c2ccccc12)NC(=O)[C@H](CCCNC(=N)N)NC(=O)[C@H](CO)NC(=O)[C@@H](N)CCCNC(=N)N)C(C)C [Peptide 172, H2N-RSRWRDVARNFLR-Ethylamidopalmitoyl] (H-RSRWRDVARNFLR-{Ethylenediamine-Palmitoyl}; C-terminus assumed)	>64	>64	>64	>64	64 (≈ 31.8 µM)
CCCCCC(=O)NCCCC[C@H](NC(=O)[C@H](CCCNC(=N)N)NC(=O)[C@H](CC(C)C)NC(=O)[C@H](Cc1ccccc1)NC(=O)[C@H](CC(N)=O)NC(=O)[C@H](CCCNC(=N)N)NC(=O)[C@H](C)NC(=O)[C@@H](NC(=O)[C@H](CC(=O)O)NC(=O)[C@H](CCCNC(=N)N)NC(=O)[C@H](Cc1c[nH]c2ccccc12)NC(=O)[C@H](CCCNC(=N)N)NC(=O)[C@H](CO)NC(=O)[C@@H](N)CCCNC(=N)N)C(C)C)C(N)=O [Peptide 178, H2N-RSRWRDVARNFLRK(Hexanyl)-NH2] (H-RSRWRDVARNFLRK(Hexanoyl)-NH2)	>64	8 (≈ 4.09 µM)	16 (≈ 8.17 µM)	16 (≈ 8.17 µM)	2 (≈ 1.02 µM)
CCCCCCCC(=O)NCCCC[C@H](NC(=O)[C@H](CCCNC(=N)N)NC(=O)[C@H](CC(C)C)NC(=O)[C@H](Cc1ccccc1)NC(=O)[C@H](CC(N)=O)NC(=O)[C@H](CCCNC(=N)N)NC(=O)[C@H](C)NC(=O)[C@@H](NC(=O)[C@H](CC(=O)O)NC(=O)[C@H](CCCNC(=N)N)NC(=O)[C@H](Cc1c[nH]c2ccccc12)NC(=O)[C@H](CCCNC(=N)N)NC(=O)[C@H](CO)NC(=O)[C@@H](N)CCCNC(=N)N)C(C)C)C(N)=O [Peptide 179, H2N-RSRWRDVARNFLRK(Octanyl)-NH2] (H-RSRWRDVARNFLRK(Octanoyl)-NH2)	32 (≈ 16.1 µM)	32 (≈ 16.1 µM)	64 (≈ 32.2 µM)	64 (≈ 32.2 µM)	8 (≈ 4.03 µM)
CCCCCCCCCCCCCCCC(=O)NCCCC[C@H](NC(=O)[C@H](CCCNC(=N)N)NC(=O)[C@H](CC(C)C)NC(=O)[C@H](Cc1ccccc1)NC(=O)[C@H](CC(N)=O)NC(=O)[C@H](CCCNC(=N)N)NC(=O)[C@H](C)NC(=O)[C@@H](NC(=O)[C@H](CC(=O)O)NC(=O)[C@H](CCCNC(=N)N)NC(=O)[C@H](Cc1c[nH]c2ccccc12)NC(=O)[C@H](CCCNC(=N)N)NC(=O)[C@H](CO)NC(=O)[C@@H](N)CCCNC(=N)N)C(C)C)C(N)=O [Peptide 182, H2N-RSRWRDVARNFLRK(Palmitoyl)-NH2] (H-RSRWRDVARNFLRK(Palmitoyl)-NH2)	32 (≈ 15.3 µM)	>64	64 (≈ 30.5 µM)	32 (≈ 15.3 µM)	4 (≈ 1.91 µM)
CCCCCCCC(=O)NCCCC[C@H](NC(=O)[C@H](CCCNC(=N)N)NC(=O)[C@H](CCSC)NC(=O)[C@H](Cc1ccccc1)NC(=O)[C@H](CC(N)=O)NC(=O)[C@H](CCCNC(=N)N)NC(=O)[C@H](C)NC(=O)[C@@H](NC(=O)[C@H](CC(=O)O)NC(=O)[C@H](CCCNC(=N)N)NC(=O)[C@H](Cc1c[nH]c2ccccc12)NC(=O)[C@H](CCCNC(=N)N)NC(=O)[C@H](CO)NC(=O)[C@@H](N)CCCNC(=N)N)C(C)C)C(N)=O [Peptide 184, H2N-RSRWRDVARNFMRK(Octanyl)-NH2] (H-RSRWRDVARNFMRK(Octanoyl)-NH2)	64 (≈ 31.9 µM)	16 (≈ 7.99 µM)	>64	16 (≈ 7.99 µM)	2 (≈ 0.998 µM)
CCCCCC(=O)N[C@H](CCCNC(=N)N)C(=O)N[C@H](CO)C(=O)N[C@H](CCCNC(=N)N)C(=O)N[C@H](Cc1c[nH]c2ccccc12)C(=O)N[C@H](CCCNC(=N)N)C(=O)N[C@H](CC(=O)O)C(=O)N[C@@H](C(=O)N[C@H](C)C(=O)N[C@H](CCCNC(=N)N)C(=O)N[C@H](CC(N)=O)C(=O)N[C@H](Cc1ccccc1)C(=O)N[C@H](CC(C)C)C(=O)N[C@H](CCCNC(=N)N)C(N)=O)C(C)C [Peptide 188, Hexyl-rsrwrdvarnflr-NH2] (Hexanoyl-[dR][dS][dR][dW][dR][dD][dV][dA][dR][dN][dF][dL][dR]-NH2)	>64	64 (≈ 35 µM)	>64	>64	16 (≈ 8.75 µM)
CCCCCCCC(=O)N[C@H](CCCNC(=N)N)C(=O)N[C@H](CO)C(=O)N[C@H](CCCNC(=N)N)C(=O)N[C@H](Cc1c[nH]c2ccccc12)C(=O)N[C@H](CCCNC(=N)N)C(=O)N[C@H](CC(=O)O)C(=O)N[C@@H](C(=O)N[C@H](C)C(=O)N[C@H](CCCNC(=N)N)C(=O)N[C@H](CC(N)=O)C(=O)N[C@H](Cc1ccccc1)C(=O)N[C@H](CC(C)C)C(=O)N[C@H](CCCNC(=N)N)C(N)=O)C(C)C [Peptide 189, Octyl-rsrwrdvarnflr-NH2] (Octanoyl-[dR][dS][dR][dW][dR][dD][dV][dA][dR][dN][dF][dL][dR]-NH2)	32 (≈ 17.2 µM)	16 (≈ 8.62 µM)	32 (≈ 17.2 µM)	8 (≈ 4.31 µM)	4 (≈ 2.15 µM)
CCCCCCCCCCCCCCCC(=O)N[C@H](CCCNC(=N)N)C(=O)N[C@H](CO)C(=O)N[C@H](CCCNC(=N)N)C(=O)N[C@H](Cc1c[nH]c2ccccc12)C(=O)N[C@H](CCCNC(=N)N)C(=O)N[C@H](CC(=O)O)C(=O)N[C@@H](C(=O)N[C@H](C)C(=O)N[C@H](CCCNC(=N)N)C(=O)N[C@H](CC(N)=O)C(=O)N[C@H](Cc1ccccc1)C(=O)N[C@H](CC(C)C)C(=O)N[C@H](CCCNC(=N)N)C(N)=O)C(C)C [Peptide 191, Palmitoyl-rsrwrdvarnflr-NH2] (Palmitoyl-[dR][dS][dR][dW][dR][dD][dV][dA][dR][dN][dF][dL][dR]-NH2)	64 (≈ 32.5 µM)	64 (≈ 32.5 µM)	>64	8 (≈ 4.06 µM)	4 (≈ 2.03 µM)
